Assay results: US11891365B2, “3-alkyl-4-amido-bicyclic [4,5,0] hydroxamic acids as HDAC inhibitors” (Valo Health, Inc., priority 2015, dated 2024)

Target: T1, Full length human recombinant HDAC6 protein (Homo sapiens, UniProt Q9UBN7)
T1 sequence (Q9UBN7 1-1215): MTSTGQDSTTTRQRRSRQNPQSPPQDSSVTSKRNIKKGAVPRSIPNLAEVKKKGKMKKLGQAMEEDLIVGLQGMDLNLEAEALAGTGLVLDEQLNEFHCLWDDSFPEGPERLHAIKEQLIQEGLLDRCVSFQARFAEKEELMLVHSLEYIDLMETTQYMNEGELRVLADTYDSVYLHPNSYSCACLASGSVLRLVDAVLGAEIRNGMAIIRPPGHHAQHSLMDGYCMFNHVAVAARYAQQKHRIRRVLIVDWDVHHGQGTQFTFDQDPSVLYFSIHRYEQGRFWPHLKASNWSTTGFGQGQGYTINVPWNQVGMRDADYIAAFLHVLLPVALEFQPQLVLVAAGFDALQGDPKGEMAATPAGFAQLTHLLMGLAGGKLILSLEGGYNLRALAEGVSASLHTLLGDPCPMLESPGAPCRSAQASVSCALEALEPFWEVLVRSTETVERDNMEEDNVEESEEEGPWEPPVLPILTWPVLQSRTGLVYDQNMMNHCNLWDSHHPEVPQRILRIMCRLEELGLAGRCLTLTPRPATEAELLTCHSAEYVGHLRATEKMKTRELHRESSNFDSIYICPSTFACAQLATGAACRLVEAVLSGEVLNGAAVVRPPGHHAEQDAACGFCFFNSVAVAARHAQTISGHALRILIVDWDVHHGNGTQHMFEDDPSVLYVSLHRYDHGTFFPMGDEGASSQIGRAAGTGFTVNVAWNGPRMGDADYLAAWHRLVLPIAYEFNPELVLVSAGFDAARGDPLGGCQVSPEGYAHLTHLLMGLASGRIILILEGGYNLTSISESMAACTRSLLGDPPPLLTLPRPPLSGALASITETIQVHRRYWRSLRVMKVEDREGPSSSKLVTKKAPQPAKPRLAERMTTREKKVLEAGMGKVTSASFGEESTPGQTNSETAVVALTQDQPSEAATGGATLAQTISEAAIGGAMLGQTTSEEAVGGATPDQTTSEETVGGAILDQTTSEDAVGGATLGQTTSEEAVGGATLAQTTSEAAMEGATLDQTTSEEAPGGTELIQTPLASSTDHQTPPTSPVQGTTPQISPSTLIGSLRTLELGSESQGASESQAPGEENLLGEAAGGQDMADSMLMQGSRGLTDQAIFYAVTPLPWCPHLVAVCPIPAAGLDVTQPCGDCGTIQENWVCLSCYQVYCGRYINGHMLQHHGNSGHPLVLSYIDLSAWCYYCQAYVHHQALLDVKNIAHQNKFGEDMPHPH
Assay: In vitro histone deacetylase assay: enzymatic HDAC6 electrophoretic mobility shift assay
Type: biochemical
Conditions: 1 nM enzyme, 2 μM peptide substrate RHKK(Ac)-NH2, 25° C., 12 concentrations; read-out: Inhibitory Concentration (IC50) Values against HDAC6, Activity Range

| IC50 | SMILES |
| --- | --- |
| ≤ 100 nM | C[C@H]1COc2cc(C(=O)NO)ccc2CN1C(=O)[C@H]1CCOC(C)(C)C1 [(S)-4-((S)-2,2-dimethyltetrahydro-2H-pyran-4-carbonyl)-N-hydroxy-3-methyl-2,3,4,5-tetrahydrobenzo[f][1,4]oxazepine-8-carboxamide] |
| ≤ 100 nM | C[C@H]1COc2cc(C(=O)NO)ccc2CN1C(=O)C1CCC1 [(S)-4-(cyclobutanecarbonyl)-N-hydroxy-3-methyl-2,3,4,5-tetrahydrobenzo[f][1,4]oxazepine-8-carboxamide] |
| ≤ 100 nM | C[C@H]1COc2cc(C(=O)NO)ccc2CN1C(=O)C1CCCCC1 [(S)-4-(cyclohexanecarbonyl)-N-hydroxy-3-methyl-2,3,4,5-tetrahydrobenzo[f][1,4]oxazepine-8-carboxamide] |
| ≤ 100 nM | C[C@H]1COc2cc(C(=O)NO)ccc2CN1C(=O)C1CCCC1 [(S)-4-(cyclopentanecarbonyl)-N-hydroxy-3-methyl-2,3,4,5-tetrahydrobenzo[f][1,4]oxazepine-8-carboxamide] |
| ≤ 100 nM | C[C@H]1COc2cc(C(=O)NO)ccc2CN1C(=O)C1CC1 [(S)-4-(cyclopropanecarbonyl)-N-hydroxy-3-methyl-2,3,4,5-tetrahydrobenzo[f][1,4]oxazepine-8-carboxamide] |
| > 500 nM | CC(=O)N1Cc2ccc(C(=O)NO)cc2O[C@@H](C)C1 [(S)-4-acetyl-N-hydroxy-2-methyl-2,3,4,5-tetrahydrobenzo[f][1,4]oxazepine-8-carboxamide] |
| 100 to 500 nM | CC(=O)N1Cc2ccc(C(=O)NO)cc2OC[C@@H]1C(C)C [(S)-4-acetyl-N-hydroxy-3-isopropyl-2,3,4,5-tetrahydrobenzo[f][1,4]oxazepine-8-carboxamide] |
| 100 to 500 nM | CC(=O)N1Cc2ccc(C(=O)NO)cc2OC[C@@H]1C [(S)-4-acetyl-N-hydroxy-3-methyl-2,3,4,5-tetrahydrobenzo[f][1,4]oxazepine-8-carboxamide] |
| ≤ 100 nM | C[C@H]1COc2cc(C(=O)NO)ccc2CN1C(=O)c1ccccc1 [(S)-4-benzoyl-N-hydroxy-3-methyl-2,3,4,5-tetrahydrobenzo[f][1,4]oxazepine-8-carboxamide] |
| 100 to 500 nM | COC[C@@H]1CN(C=O)Cc2ccc(C(=O)NO)cc2O1 [(S)-4-formyl-N-hydroxy-2-(methoxymethyl)-2,3,4,5-tetrahydrobenzo[f][1,4]oxazepine-8-carboxamide] |
| ≤ 100 nM | C[C@H]1CN(C=O)Cc2ccc(C(=O)NO)cc2O1 [(S)-4-formyl-N-hydroxy-2-methyl-2,3,4,5-tetrahydrobenzo[f][1,4]oxazepine-8-carboxamide] |
| ≤ 100 nM | O=CN1Cc2ccc(C(=O)NO)cc2O[C@@H](c2ccccc2)C1 [(S)-4-formyl-N-hydroxy-2-phenyl-2,3,4,5-tetrahydrobenzo[f][1,4]oxazepine-8-carboxamide] |
| ≤ 100 nM | C[C@H]1COc2cc(C(=O)NO)ccc2CN1C=O [(S)-4-formyl-N-hydroxy-3-methyl-2,3,4,5-tetrahydrobenzo[f][1,4]oxazepine-8-carboxamide] |
| ≤ 100 nM | COC[C@@H]1CN(C(=O)C2(C)CCC2)Cc2ccc(C(=O)NO)cc2O1 [(S)-N-hydroxy-2-(methoxymethyl)-4-(1-methylcyclobutane-1-carbonyl)-2,3,4,5-tetrahydrobenzo[f][1,4]oxazepine-8-carboxamide] |
| 100 to 500 nM | COC[C@@H]1CN(C(=O)C2CCOCC2)Cc2ccc(C(=O)NO)cc2O1 [(S)-N-hydroxy-2-(methoxymethyl)-4-(tetrahydro-2H-pyran-4-carbonyl)-2,3,4,5-tetrahydrobenzo[f][1,4]oxazepine-8-carboxamide] |
| 100 to 500 nM | C[C@H]1CN(C(=O)C2(C)CCC2)Cc2ccc(C(=O)NO)cc2O1 [(S)-N-hydroxy-2-methyl-4-(1-methylcyclobutane-1-carbonyl)-2,3,4,5-tetrahydrobenzo[f][1,4]oxazepine-8-carboxamide] |

| IC50 | SMILES |
| --- | --- |
| ≤ 100 nM | O=C(NO)c1ccc2c(c1)O[C@@H](c1ccccc1)CN(C(=O)C1CCOCC1)C2 [(S)-N-hydroxy-2-phenyl-4-(tetrahydro-2H-pyran-4-carbonyl)-2,3,4,5-tetrahydrobenzo[f][1,4]oxazepine-8-carboxamide] |
| ≤ 100 nM | COC[C@H]1COc2cc(C(=O)NO)ccc2CN1C(=O)C1CCOCC1 [(S)-N-hydroxy-3-(methoxymethyl)-4-(tetrahydro-2H-pyran-4-carbonyl)-2,3,4,5-tetrahydrobenzo[f][1,4]oxazepine-8-carboxamide] |
| ≤ 100 nM | CC(C)[C@H]1COc2cc(C(=O)NO)ccc2CN1C(=O)C1(C)CCC1 [(S)-N-hydroxy-3-isopropyl-4-(1-methylcyclobutane-1-carbonyl)-2,3,4,5-tetrahydrobenzo[f][1,4]oxazepine-8-carboxamide] |
| 100 to 500 nM | CC(C)[C@H]1COc2cc(C(=O)NO)ccc2CN1C(=O)CC1CCOCC1 [(S)-N-hydroxy-3-isopropyl-4-(2-(tetrahydro-2H-pyran-4-yl)acetyl)-2,3,4,5-tetrahydrobenzo[f][1,4]oxazepine-8-carboxamide] |
| ≤ 100 nM | CC(C)[C@H]1COc2cc(C(=O)NO)ccc2CN1C(=O)C1CCOCC1 [(S)-N-hydroxy-3-isopropyl-4-(tetrahydro-2H-pyran-4-carbonyl)-2,3,4,5-tetrahydrobenzo[f][1,4]oxazepine-8-carboxamide] |
| ≤ 100 nM | C[C@H]1COc2cc(C(=O)NO)ccc2CN1C(=O)C1(C)CCC1 [(S)-N-hydroxy-3-methyl-4-(1-methylcyclobutane-1-carbonyl)-2,3,4,5-tetrahydrobenzo[f][1,4]oxazepine-8-carboxamide] |
| 100 to 500 nM | C[C@H]1COc2cc(C(=O)NO)ccc2CN1C(=O)CC1CCOCC1 [(S)-N-hydroxy-3-methyl-4-(2-(tetrahydro-2H-pyran-4-yl)acetyl)-2,3,4,5-tetrahydrobenzo[f][1,4]oxazepine-8-carboxamide] |
| ≤ 100 nM | C[C@H]1COc2cc(C(=O)NO)ccc2CN1C(=O)C(C)(C)c1cccnc1 [(S)-N-hydroxy-3-methyl-4-(2-methyl-2-(pyridin-3-yl)propanoyl)-2,3,4,5-tetrahydrobenzo[f][1,4]oxazepine-8-carboxamide] |
| ≤ 100 nM | C[C@H]1COc2cc(C(=O)NO)ccc2CN1C(=O)C(C)(C)C1CCOCC1 [(S)-N-hydroxy-3-methyl-4-(2-methyl-2-(tetrahydro-2H-pyran-4-yl)propanoyl)-2,3,4,5-tetrahydrobenzo[f][1,4]oxazepine-8-carboxamide] |
| ≤ 100 nM | C[C@H]1COc2cc(C(=O)NO)ccc2CN1C(=O)CCOCC(F)(F)F [(S)-N-hydroxy-3-methyl-4-(3-(2,2,2-trifluoroethoxy)propanoyl)-2,3,4,5-tetrahydrobenzo[f][1,4]oxazepine-8-carboxamide] |
| 100 to 500 nM | C[C@H]1COc2cc(C(=O)NO)ccc2CN1C(=O)CCOC1CCOCC1 [(S)-N-hydroxy-3-methyl-4-(3-((tetrahydro-2H-pyran-4-yl)oxy)propanoyl)-2,3,4,5-tetrahydrobenzo[f][1,4]oxazepine-8-carboxamide] |
| ≤ 100 nM | C[C@H]1COc2cc(C(=O)NO)ccc2CN1C(=O)C1(C)COC1 [(S)-N-hydroxy-3-methyl-4-(3-methyloxetane-3-carbonyl)-2,3,4,5-tetrahydrobenzo[f][1,4]oxazepine-8-carboxamide] |
| ≤ 100 nM | C[C@H]1COc2cc(C(=O)NO)ccc2CN1C(=O)C1(C)CCOCC1 [(S)-N-hydroxy-3-methyl-4-(4-methyltetrahydro-2H-pyran-4-carbonyl)-2,3,4,5-tetrahydrobenzo[f][1,4]oxazepine-8-carboxamide] |
| ≤ 100 nM | C[C@H]1OCCC[C@@H]1C(=O)N1Cc2ccc(C(=O)NO)cc2OC[C@@H]1C [(S)-N-hydroxy-3-methyl-4-((2R,3S)-2-methyltetrahydro-2H-pyran-3-carbonyl)-2,3,4,5-tetrahydrobenzo[f][1,4]oxazepine-8-carboxamide] |
| 100 to 500 nM | C[C@H]1COc2cc(C(=O)NO)ccc2CN1C(=O)[C@@]1(C)CCCCO1 [(S)-N-hydroxy-3-methyl-4-((R)-2-methyltetrahydro-2H-pyran-2-carbonyl)-2,3,4,5-tetrahydrobenzo[f][1,4]oxazepine-8-carboxamide] |
| ≤ 100 nM | C[C@H]1COc2cc(C(=O)NO)ccc2CN1C(=O)[C@]1(C)CCOC1 [(S)-N-hydroxy-3-methyl-4-((R)-3-methyltetrahydrofuran-3-carbonyl)-2,3,4,5-tetrahydrobenzo[f][1,4]oxazepine-8-carboxamide] |
